{"source": "patent US10421944B2", "about": "“Method for producing neural stem cells using synthetic peptide” (TOAGOSEI CO. LTD., priority 2015, dated 2019)", "system": "CCD1079SK cells (fibroblasts from human skin tissue)", "experiment": "Test to evaluate neural stem cell-inducing activity (fluorescent immunostaining of nestin and GFAP in fibroblasts)", "format": "cell-based", "settings": "peptide 10 μM, 18 days of culture at 30° C., compared with peptide-free group", "method": "Neural stem cells were induced (prepared) from fibroblasts using the neural stem cell-inducing synthetic peptide (Sample 1) obtained in Example 1 above. The test cells were CCD1079SK cells (ATCC™ CRL-2097), a cultured cell line of fibroblasts from human skin tissue. The test details were as follows.\nPreviously frozen CCD1079SK cells were seeded to a cell density of 1.2×10^5/well in a cell culture chamber (also called a slide chamber). The cell culture chamber had one well per slide (culture area 19 mm×44 mm). Specifically, the thawed CCD1079SK cells were suspended in ordinary Dulbecco's modified Eagle's medium (DMEM) to prepare a cell suspension with a cell density of 1.2×10^5/mL, and 1 mL of this cell suspension was seeded in the aforementioned cell culture chamber. The DMEM medium was ordinary DMEM (Wako Pure Chemical Industries, Ltd., Cat. No. 043-30085) with 10% FBS, 100 units/mL penicillin and 100 μg/mL streptomycin added thereto. The CCD1079SK cells seeded in the cell culture chamber were pre-cultured for several hours (about six hours) until the cells adhered to the bottom of the culture container in the incubator under conditions of 5% CO2, 37° C. […]", "data": [{"sequence": "LLLLLLVGLTAPAGKKRTLRKNDRKKR [Sample 1]", "values": [{"measurement": "expression of neural stem cell marker protein nestin (cells with increased quantities of nestin protein)", "setting": "confocal laser microscopy (FIG. 1 vs FIG. 3)", "result": "more cells with increased quantities of nestin protein"}, {"measurement": "expression of neural stem cell marker protein GFAP (cells with increased quantities of GFAP)", "setting": "confocal laser microscopy (FIG. 2 vs FIG. 4)", "result": "more cells with increased quantities of nestin protein and GFAP"}]}]}
